Experiments:
Experiment in all cases: KinaseProfiler off-target kinase profiling
Format in all cases: biochemical
CK1delta = target: T1, CK1delta (Homo sapiens, UniProt P48730); settings: 10 μM, ATP near Km
T1 construct: purchased Millipore, Inc. (KinaseProfiler service)
Protocol: (§1) A representative compound of the invention (Example 20) was tested for off-target kinase activity at a concentration of 10 μM by Millipore, Inc. in their KinaseProfiler™ service against all the kinases available in their full kinase panel. The compound was run in duplicate at a concentration of ATP near the Km for each individual kinase according to Millipore's specifications. The results are shown in Table B. Data are reported as percent of control (POC) and are the average of the two replicates.

HIPK3 = target: T2, HIPK3 (Homo sapiens, UniProt Q9H422); settings: 10 μM, ATP near Km
T2 construct: purchased Millipore, Inc. (KinaseProfiler service)
Protocol: as §1

TNK2 = target: T3, TNK2 (Homo sapiens, UniProt Q07912); settings: 10 μM, ATP near Km
T3 construct: purchased Millipore, Inc. (KinaseProfiler service)
Protocol: as §1

SRC = target: T4, SRC (Homo sapiens, UniProt P12931); settings: 10 μM, ATP near Km
T4 construct: purchased Millipore, Inc. (KinaseProfiler service)
Protocol: as §1

JNK3 = target: T5, JNK3 (Homo sapiens, UniProt P53779); settings: 10 μM, ATP near Km
T5 construct: purchased Millipore, Inc. (KinaseProfiler service)
Protocol: as §1

CK1gamma1 = target: T6, CK1gamma1 (Homo sapiens, UniProt Q9HCP0); settings: 10 μM, ATP near Km
T6 construct: purchased Millipore, Inc. (KinaseProfiler service)
Protocol: as §1

MSK1 = target: T7, MSK1 (Homo sapiens, UniProt O75582); settings: 10 μM, ATP near Km
T7 construct: purchased Millipore, Inc. (KinaseProfiler service)
Protocol: as §1

TAO2 = target: T8, TAO2 (Homo sapiens, UniProt Q9UL54); settings: 10 μM, ATP near Km
T8 construct: purchased Millipore, Inc. (KinaseProfiler service)
Protocol: as §1

LIMK1 = target: T9, LIMK1 (Homo sapiens, UniProt P53667); settings: 10 μM, ATP near Km
T9 construct: purchased Millipore, Inc. (KinaseProfiler service)
Protocol: as §1

CLK3 = target: T10, CLK3 (Homo sapiens, UniProt P49761); settings: 10 μM, ATP near Km
T10 construct: purchased Millipore, Inc. (KinaseProfiler service)
Protocol: as §1

CK1gamma3 = target: T11, CK1gamma3 (Homo sapiens, UniProt Q9Y6M4); settings: 10 μM, ATP near Km
T11 construct: purchased Millipore, Inc. (KinaseProfiler service)
Protocol: as §1

Pyk2 = target: T12, Pyk2 (Homo sapiens, UniProt Q14289); settings: 10 μM, ATP near Km
T12 construct: purchased Millipore (KinaseProfiler service)
Protocol: as §1

GRK6 = target: T13, GRK6 (Homo sapiens, UniProt P43250); settings: 10 μM, ATP near Km
T13 construct: purchased Millipore, Inc. (KinaseProfiler service)
Protocol: as §1

BrSK2 = target: T14, BrSK2 (Homo sapiens, UniProt Q8IWQ3); settings: 10 μM, ATP near Km
T14 construct: purchased Millipore, Inc. (KinaseProfiler service)
Protocol: as §1

GSK3alpha = target: T15, GSK3alpha (Homo sapiens, UniProt P49840); settings: 10 μM, ATP near Km
T15 construct: purchased Millipore, Inc. (KinaseProfiler service)
Protocol: as §1

CAMK2d = target: T16, CAMK2d (Homo sapiens, UniProt Q13557); settings: 10 μM, ATP near Km
T16 construct: purchased Millipore, Inc. (KinaseProfiler service)
Protocol: as §1

CHK2 = target: T17, CHK2 (Homo sapiens, UniProt O96017); settings: 10 μM, ATP near Km
T17 construct: purchased Millipore, Inc. (KinaseProfiler service)
Protocol: as §1

MINK = target: T18, MINK (Homo sapiens, UniProt Q8N4C8); settings: 10 μM, ATP near Km
T18 construct: purchased Millipore, Inc. (KinaseProfiler service)
Protocol: as §1

KDR = target: T19, KDR (Homo sapiens, UniProt P35968); settings: 10 μM, ATP near Km
T19 construct: purchased Millipore, Inc. (KinaseProfiler service)
Protocol: as §1

PAK4 = target: T20, PAK4 (Homo sapiens, UniProt O96013); settings: 10 μM, ATP near Km
T20 construct: purchased Millipore, Inc. (KinaseProfiler service)
Protocol: as §1

HIPK1 = target: T21, HIPK1 (Homo sapiens, UniProt Q86Z02); settings: 10 μM, ATP near Km
T21 construct: purchased Millipore, Inc. (KinaseProfiler service)
Protocol: as §1

PAK2 = target: T22, PAK2 (Homo sapiens, UniProt Q13177); settings: 10 μM, ATP near Km
T22 construct: purchased Millipore, Inc. (KinaseProfiler service)
Protocol: as §1

Plk2 = target: T23, Plk2 (Homo sapiens, UniProt Q9NYY3); settings: 10 μM, ATP near Km
T23 construct: purchased Millipore (KinaseProfiler service)
Protocol: as §1

PhKgamma2 = target: T24, PhKgamma2 (Homo sapiens, UniProt P15735); settings: 10 μM, ATP near Km
T24 construct: purchased Millipore, Inc. (KinaseProfiler service)
Protocol: as §1

HIPK2 = target: T25, HIPK2 (Homo sapiens, UniProt Q9H2X6); settings: 10 μM, ATP near Km
T25 construct: purchased Millipore, Inc. (KinaseProfiler service)
Protocol: as §1

JAK3 = target: T26, JAK3 (Homo sapiens, UniProt P52333); settings: 10 μM, ATP near Km
T26 construct: purchased Millipore, Inc. (KinaseProfiler service)
Protocol: as §1

NLK = target: T27, NLK (Homo sapiens, UniProt Q9UBE8); settings: 10 μM, ATP near Km
T27 construct: purchased Millipore, Inc. (KinaseProfiler service)
Protocol: as §1

Fer = target: T28, Fer (Homo sapiens, UniProt P16591); settings: 10 μM, ATP near Km
T28 construct: purchased Millipore, Inc. (KinaseProfiler service)
Protocol: as §1

PKCalpha = target: T29, PKCalpha (Homo sapiens, UniProt P17252); settings: 10 μM, ATP near Km
T29 construct: purchased Millipore, Inc. (KinaseProfiler service)
Protocol: as §1

MST2 = target: T30, MST2 (Homo sapiens, UniProt Q13188); settings: 10 μM, ATP near Km
T30 construct: purchased Millipore, Inc. (KinaseProfiler service)
Protocol: as §1

SGK2 = target: T31, SGK2 (Homo sapiens, UniProt Q9HBY8); settings: 10 μM, ATP near Km
T31 construct: purchased Millipore, Inc. (KinaseProfiler service)
Protocol: as §1

eEF-2K = target: T32, eEF-2K (Homo sapiens, UniProt O00418); settings: 10 μM, ATP near Km
T32 construct: purchased Millipore, Inc. (KinaseProfiler service)
Protocol: as §1

PKCgamma = target: T33, PKCgamma (Homo sapiens, UniProt P05129); settings: 10 μM, ATP near Km
T33 construct: purchased Millipore, Inc. (KinaseProfiler service)
Protocol: as §1

MKK4_m = target: T34, MKK4_m (Mus musculus, UniProt P47809); settings: 10 μM, ATP near Km
T34 construct: purchased Millipore, Inc. (KinaseProfiler service)
Protocol: as §1

MKK7beta = target: T35, MKK7beta (Homo sapiens, UniProt O14733); settings: 10 μM, ATP near Km, POC verified as a false positive (footnote)
T35 construct: purchased Millipore, Inc. (KinaseProfiler service)
Protocol: as §1

TSSK2 = target: T36, TSSK2 (Homo sapiens, UniProt Q96PF2); settings: 10 μM, ATP near Km
T36 construct: purchased Millipore, Inc. (KinaseProfiler service)
Protocol: as §1

SGK1 = target: T37, SGK1 (Homo sapiens, UniProt O00141, S422D); settings: 10 μM, ATP near Km
T37 construct: purchased Millipore, Inc. (KinaseProfiler service)
Protocol: as §1

Pim-1 = target: T38, Pim-1 (Homo sapiens, UniProt P11309); settings: 10 μM, ATP near Km
T38 construct: purchased Millipore, Inc. (KinaseProfiler service)
Protocol: as §1

PDGFRbeta = target: T39, PDGFRbeta (Homo sapiens, UniProt P09619); settings: 10 μM, ATP near Km
T39 construct: purchased Millipore, Inc. (KinaseProfiler service)
Protocol: as §1

CDK9/cyclinT1 = target: T40, CDK9/cyclinT1 (Homo sapiens, UniProt P50750); settings: 10 μM, ATP near Km
T40 construct: purchased Millipore, Inc. (KinaseProfiler service)
Protocol: as §1

FGFR3 = target: T41, FGFR3 (Homo sapiens, UniProt P22607); settings: 10 μM, ATP near Km
T41 construct: purchased Millipore, Inc. (KinaseProfiler service)
Protocol: as §1

T22 sequence (Q13177 whole entry): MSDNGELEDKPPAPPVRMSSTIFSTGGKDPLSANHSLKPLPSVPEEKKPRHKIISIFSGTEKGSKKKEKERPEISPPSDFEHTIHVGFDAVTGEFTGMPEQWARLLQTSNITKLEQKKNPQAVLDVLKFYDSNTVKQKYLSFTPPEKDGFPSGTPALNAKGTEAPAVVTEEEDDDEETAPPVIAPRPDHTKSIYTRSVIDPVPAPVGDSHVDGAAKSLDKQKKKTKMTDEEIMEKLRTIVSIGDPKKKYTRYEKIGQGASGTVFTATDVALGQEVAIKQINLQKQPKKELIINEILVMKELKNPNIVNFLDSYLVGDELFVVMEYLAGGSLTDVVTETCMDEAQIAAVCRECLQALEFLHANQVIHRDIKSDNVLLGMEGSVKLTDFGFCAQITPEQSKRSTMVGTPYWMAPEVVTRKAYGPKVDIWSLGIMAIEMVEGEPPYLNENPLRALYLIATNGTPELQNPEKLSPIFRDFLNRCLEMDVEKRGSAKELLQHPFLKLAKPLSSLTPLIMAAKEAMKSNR
T7 sequence (O75582 whole entry): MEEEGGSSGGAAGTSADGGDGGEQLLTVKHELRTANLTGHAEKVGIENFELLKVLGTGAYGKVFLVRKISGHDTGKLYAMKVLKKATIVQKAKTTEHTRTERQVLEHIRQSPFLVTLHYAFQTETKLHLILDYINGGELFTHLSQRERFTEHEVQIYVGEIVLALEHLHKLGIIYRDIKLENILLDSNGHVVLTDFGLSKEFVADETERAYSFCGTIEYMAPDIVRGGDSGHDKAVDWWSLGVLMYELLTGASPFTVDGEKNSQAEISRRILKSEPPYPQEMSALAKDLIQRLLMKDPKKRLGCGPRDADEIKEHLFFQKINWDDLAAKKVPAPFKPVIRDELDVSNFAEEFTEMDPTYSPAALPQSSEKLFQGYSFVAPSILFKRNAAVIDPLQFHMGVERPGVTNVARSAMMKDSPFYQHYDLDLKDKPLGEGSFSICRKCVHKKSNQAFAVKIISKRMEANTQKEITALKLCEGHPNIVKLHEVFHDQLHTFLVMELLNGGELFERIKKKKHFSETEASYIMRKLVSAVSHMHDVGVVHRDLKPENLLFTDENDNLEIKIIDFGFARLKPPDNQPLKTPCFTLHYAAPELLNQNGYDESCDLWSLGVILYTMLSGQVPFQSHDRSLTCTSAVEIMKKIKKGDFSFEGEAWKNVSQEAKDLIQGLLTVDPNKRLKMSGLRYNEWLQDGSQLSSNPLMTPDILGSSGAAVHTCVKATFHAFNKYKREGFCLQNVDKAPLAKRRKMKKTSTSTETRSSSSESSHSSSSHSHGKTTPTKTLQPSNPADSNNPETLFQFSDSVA
T31 sequence (Q9HBY8 whole entry): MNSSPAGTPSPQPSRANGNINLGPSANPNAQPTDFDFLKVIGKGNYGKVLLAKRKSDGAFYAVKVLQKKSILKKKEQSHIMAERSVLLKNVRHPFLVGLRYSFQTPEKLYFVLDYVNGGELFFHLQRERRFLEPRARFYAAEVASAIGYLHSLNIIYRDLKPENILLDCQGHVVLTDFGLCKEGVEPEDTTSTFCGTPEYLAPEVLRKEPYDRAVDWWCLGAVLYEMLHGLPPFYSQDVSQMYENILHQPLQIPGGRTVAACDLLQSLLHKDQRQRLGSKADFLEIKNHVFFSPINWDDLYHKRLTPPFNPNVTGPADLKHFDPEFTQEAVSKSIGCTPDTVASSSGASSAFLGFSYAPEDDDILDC
T23 sequence (Q9NYY3 whole entry): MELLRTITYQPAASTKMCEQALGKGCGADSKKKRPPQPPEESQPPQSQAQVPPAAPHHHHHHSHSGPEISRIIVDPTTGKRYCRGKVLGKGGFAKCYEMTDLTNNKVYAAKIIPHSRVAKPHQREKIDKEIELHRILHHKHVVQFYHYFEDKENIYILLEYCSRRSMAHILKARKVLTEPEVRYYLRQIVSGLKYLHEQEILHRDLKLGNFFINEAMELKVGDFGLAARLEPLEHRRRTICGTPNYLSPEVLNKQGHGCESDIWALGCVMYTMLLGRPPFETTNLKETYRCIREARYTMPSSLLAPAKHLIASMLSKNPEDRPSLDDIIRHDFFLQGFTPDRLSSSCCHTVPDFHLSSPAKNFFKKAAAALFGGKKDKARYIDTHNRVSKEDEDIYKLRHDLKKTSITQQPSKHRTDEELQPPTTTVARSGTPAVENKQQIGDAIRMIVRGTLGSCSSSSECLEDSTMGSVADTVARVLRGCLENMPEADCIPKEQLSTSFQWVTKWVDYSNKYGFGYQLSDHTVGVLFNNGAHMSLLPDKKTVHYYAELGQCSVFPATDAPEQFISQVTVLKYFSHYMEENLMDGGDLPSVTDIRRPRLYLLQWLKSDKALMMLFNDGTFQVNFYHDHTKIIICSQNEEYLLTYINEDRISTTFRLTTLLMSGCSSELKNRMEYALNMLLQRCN
T6 sequence (Q9HCP0 whole entry): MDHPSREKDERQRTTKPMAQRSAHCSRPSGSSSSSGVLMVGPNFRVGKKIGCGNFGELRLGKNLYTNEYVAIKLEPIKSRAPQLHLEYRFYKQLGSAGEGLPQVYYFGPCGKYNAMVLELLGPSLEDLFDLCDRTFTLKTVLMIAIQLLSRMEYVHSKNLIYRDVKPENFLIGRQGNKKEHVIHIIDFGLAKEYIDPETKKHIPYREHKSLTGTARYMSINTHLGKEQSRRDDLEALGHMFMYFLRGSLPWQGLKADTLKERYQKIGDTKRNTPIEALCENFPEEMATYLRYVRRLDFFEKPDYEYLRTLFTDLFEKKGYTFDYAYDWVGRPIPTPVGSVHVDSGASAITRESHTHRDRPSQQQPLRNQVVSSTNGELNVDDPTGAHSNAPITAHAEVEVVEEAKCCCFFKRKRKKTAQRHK
T10 sequence (P49761 whole entry): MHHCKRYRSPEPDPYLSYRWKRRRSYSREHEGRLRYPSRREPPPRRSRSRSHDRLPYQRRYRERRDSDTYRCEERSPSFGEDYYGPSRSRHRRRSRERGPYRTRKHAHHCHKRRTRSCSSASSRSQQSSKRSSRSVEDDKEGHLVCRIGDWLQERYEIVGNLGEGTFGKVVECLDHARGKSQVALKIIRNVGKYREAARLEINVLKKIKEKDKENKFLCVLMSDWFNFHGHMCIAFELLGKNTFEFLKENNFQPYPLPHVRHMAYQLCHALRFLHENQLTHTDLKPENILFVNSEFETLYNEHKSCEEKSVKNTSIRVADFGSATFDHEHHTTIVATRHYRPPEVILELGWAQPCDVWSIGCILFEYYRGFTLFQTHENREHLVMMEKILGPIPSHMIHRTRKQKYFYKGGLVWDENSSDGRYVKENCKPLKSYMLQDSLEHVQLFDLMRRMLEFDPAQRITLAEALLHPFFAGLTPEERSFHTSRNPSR
T41 sequence (P22607 23-806): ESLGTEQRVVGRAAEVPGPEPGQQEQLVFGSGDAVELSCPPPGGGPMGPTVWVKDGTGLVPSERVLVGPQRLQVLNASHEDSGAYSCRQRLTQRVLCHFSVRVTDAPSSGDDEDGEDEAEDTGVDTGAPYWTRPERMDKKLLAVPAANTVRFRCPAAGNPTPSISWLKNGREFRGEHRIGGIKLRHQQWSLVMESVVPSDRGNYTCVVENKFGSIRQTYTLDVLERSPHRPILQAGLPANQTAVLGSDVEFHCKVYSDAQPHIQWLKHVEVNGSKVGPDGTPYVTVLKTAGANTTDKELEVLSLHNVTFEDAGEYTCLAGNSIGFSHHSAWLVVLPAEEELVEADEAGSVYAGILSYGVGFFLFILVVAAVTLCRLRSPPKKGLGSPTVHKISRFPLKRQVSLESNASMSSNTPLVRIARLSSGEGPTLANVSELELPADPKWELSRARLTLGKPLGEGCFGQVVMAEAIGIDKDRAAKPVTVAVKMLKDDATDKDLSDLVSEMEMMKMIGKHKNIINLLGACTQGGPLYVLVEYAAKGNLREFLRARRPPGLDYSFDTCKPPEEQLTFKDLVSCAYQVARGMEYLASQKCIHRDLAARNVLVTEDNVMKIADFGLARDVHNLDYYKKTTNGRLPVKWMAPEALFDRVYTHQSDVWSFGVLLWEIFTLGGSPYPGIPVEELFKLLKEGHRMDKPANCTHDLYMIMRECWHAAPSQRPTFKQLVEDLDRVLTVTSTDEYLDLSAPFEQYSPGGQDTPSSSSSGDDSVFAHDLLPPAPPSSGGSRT

## COCCN1C[C@@H](NC(=O)Nc2c(-c3ccccc3)nc3c(C)nccn23)[C@H](c2ccc(F)c(F)c2)C1 [Example 20, 1-((3S,4R)-4-(3,4-difluorophenyl)-1-(2-methoxyethyl)pyrrolidin-3-yl)-3-(8-methyl-2-phenylimidazo[1,2-a]pyrazin-3-yl)urea]
CK1delta
  Avg. POC: 93 POC
HIPK3
  Avg. POC: 105.5 POC
TNK2
  Avg. POC: 94.5 POC
SRC
  Avg. POC: 107 POC
JNK3
  Avg. POC: 124.5 POC
CK1gamma1
  Avg. POC: 109 POC
MSK1
  Avg. POC: 121 POC
TAO2
  Avg. POC: 104.5 POC
LIMK1
  Avg. POC: 103 POC
CLK3
  Avg. POC: 107 POC
CK1gamma3
  Avg. POC: 112 POC
Pyk2
  Avg. POC: 98.5 POC
GRK6
  Avg. POC: 110 POC
BrSK2
  Avg. POC: 116 POC
GSK3alpha
  Avg. POC: 109.5 POC
CAMK2d
  Avg. POC: 102 POC
CHK2
  Avg. POC: 138 POC
MINK
  Avg. POC: 99 POC
KDR
  Avg. POC: 107 POC
PAK4
  Avg. POC: 97.5 POC
HIPK1
  Avg. POC: 111 POC
PAK2
  Avg. POC: 100.5 POC
Plk2
  Avg. POC: 106 POC
PhKgamma2
  Avg. POC: 98.5 POC
HIPK2
  Avg. POC: 102 POC
JAK3
  Avg. POC: 115 POC
NLK
  Avg. POC: 99 POC
Fer
  Avg. POC: 91.5 POC
PKCalpha
  Avg. POC: 103.5 POC
MST2
  Avg. POC: 107.5 POC
SGK2
  Avg. POC: 105 POC
eEF-2K
  Avg. POC: 108 POC
PKCgamma
  Avg. POC: 111 POC
MKK4_m
  Avg. POC: 113 POC
MKK7beta
  Avg. POC: −2 POC
TSSK2
  Avg. POC: 106 POC
SGK1
  Avg. POC: 119 POC
Pim-1
  Avg. POC: 105 POC
PDGFRbeta
  Avg. POC: 114 POC
CDK9/cyclinT1
  Avg. POC: 109.5 POC
FGFR3
  Avg. POC: 101 POC
